Results: US20050080113A1, “Medicinal compositions” (priority 2001, published 2005)

Row | melting point | Compound
1 | 98 to 99 °C | CSCCc1nc(-c2cccc(C)c2)c(-c2ccnc(N)c2)s1 [H 99-1, 4 [4 (3 methylphenyl)-2 [2-(methylthio)ethyl]-1,3 thiazol-5 yl]-2 pyridylamine]
2 | 89 to 91 °C | Cc1cccc(-c2nc(C(C)OC(=O)c3ccccc3)sc2-c2ccnc(N)c2)c1 (centres unmarked) [H 99-2, 1 [5 (2 amino-4 pyridyl)-4-(3 methylphenyl)-1,3 thiazol-2 yl]ethyl benzoate]
3 | 96 to 97 °C | CSCCc1nc(-c2cccc(Cl)c2)c(-c2ccnc(N)c2)s1 [H 100-1, 4 [4 (3 chlorophenyl)-2-[2 (methylthio)ethyl]-1,3 thiazol-5 yl]-2 pyridylamine]
4 | 111 to 112 °C | CSCc1nc(-c2cccc(Cl)c2)c(-c2ccnc(N)c2)s1 [H 101-1, 4 [4 (3 chlorophenyl)-2-(methylthio)methyl-1,3 thiazol-5 yl]-2 pyridylamine]
5 | 131 to 132 °C | CC(F)(F)c1nc(-c2cccc(Cl)c2)c(-c2ccnc(N)c2)s1 [H 101-2, 4 [4 (3 chlorophenyl)-2-(1,1 difluoroethyl)-1,3 thiazol-5 yl]-2 pyridylamine]
6 | 85 to 86 °C | CCC(=O)Nc1cc(-c2sc(CCSC)nc2-c2cccc(C)c2)ccn1 [H 102-1, N-[4 [4 (3 methylphenyl)-2 [2 (methylthio)ethyl]-1,3 thiazol-5 yl]-2-pyridyl]propionamide]
7 | 91 to 92 °C | CCC(=O)Nc1cc(-c2sc(CCSC)nc2-c2cccc(Cl)c2)ccn1 [H 102-2, N-[4 [4 (3 chlorophenyl)-2 [2 (methylthio)ethyl]-1,3 thiazol-5 yl]-2-pyridyl]propionamide]
8 | 118 to 119 °C | CCC(=O)Nc1cc(-c2sc(CSC)nc2-c2cccc(Cl)c2)ccn1 [H 102-3, N-[4 [4 (3 chlorophenyl)-2 (methylthio)methyl-1,3 thiazol-5 yl]-2 pyridyl]propionamide]
9 | 141 to 142 °C | CCC(=O)Nc1cc(-c2sc(C(C)(F)F)nc2-c2cccc(Cl)c2)ccn1 [H 102-4, N-[4 [4 (3 chlorophenyl)-2 (1,1 difluoroethyl)-1,3 thiazol-5 yl]-2 pyridyl]propionamide]
10 | 102 to 103 °C | CCC(=O)Nc1cc(-c2sc(C(C)OC(=O)c3ccccc3)nc2-c2cccc(C)c2)ccn1 (centres unmarked) [H 102-5, 1 [4 (3 methylphenyl)-5-(2 propionylamino-4 pyridyl)-1,3 thiazol-2 yl]ethyl benzoate]
11 | 124 to 127 °C | CCC(=O)Nc1cc(-c2sc(C(C)OC(=O)c3ccccc3)nc2-c2cccc(Cl)c2)ccn1 (centres unmarked) [H 102-6, 1 [4 (3 chlorophenyl)-5-(2 propionylamino-4 pyridyl)-1,3 thiazol-2 yl]ethyl benzoate]
12 | 152 to 154 °C | CC(=O)Nc1cc(-c2sc(C(C)OC(=O)c3ccccc3)nc2-c2cccc(Cl)c2)ccn1 (centres unmarked) [H 103-1, 1 [5 (2 acetylamino-4-pyridyl)-4 (3 chlorophenyl)-1,3 thiazol-2 yl]ethyl benzoate]
13 | 99 to 100 °C | CCOC(=O)Cc1nc(-c2cccc(Cl)c2)c(-c2ccnc(NC(C)=O)c2)s1 [H 103-2, ethyl [5 (2 acetylamino-4-pyridyl)-4 (3 chlorophenyl)-1,3 thiazol-2 yl]acetate]
14 | 115 to 116 °C | CCC(=O)Nc1cc(-c2sc(C(C)O)nc2-c2cccc(C)c2)ccn1 (centres unmarked) [H 104, N-[4 [2 (1 hydroxyethyl)-4 (3 methylphenyl)-1,3 thiazol-5 yl]-2 pyridyl]propionamide]
15 | 131 to 132 °C | CCC(=O)Nc1cc(-c2sc(C(C)O)nc2-c2cccc(Cl)c2)ccn1 (centres unmarked) [H 105, N-[4 [4 (3 chlorophenyl)-2-(1 hydroxyethyl)-1,3 thiazol-5 yl]-2 pyridyl]propionamide]
16 | 121 to 123 °C | CCC(=O)Nc1cc(-c2sc(C(C)=O)nc2-c2cccc(C)c2)ccn1 [H 106, N-[4 [2 acetyl-4 (3 methylphenyl)-1,3 thiazol-5 yl]-2-pyridyl]propionamide]
17 | 115 to 117 °C | CCC(=O)Nc1cc(-c2sc(C(C)=O)nc2-c2cccc(Cl)c2)ccn1 [H 107, N-[4 [2 acetyl-4 (3-chlorophenyl)-1,3 thiazol-5 yl]-2 pyridyl]propionamide]
18 | 160 to 162 °C | CCNC(=O)Nc1cc(-c2sc(CC)nc2-c2cccc(C)c2)ccn1 [H 108, N-ethyl-N′-[4 [2 ethyl-4 (3 methylphenyl)-1,3 thiazol-5 yl]-2-pyridyl]urea]
19 | 177 to 180 °C | CCNC(=O)Nc1cc(-c2sc(CC)nc2-c2cccc(Cl)c2)ccn1 [H 109, N-[4 [4 (3 chlorophenyl)-2-ethyl-1,3 thiazol-5 yl]-2 pyridyl]-N′-ethyl-urea]
20 | 110 to 113 °C | CC(=O)Nc1cc(-c2sc(C(C)OC(=O)c3ccccc3)nc2-c2cccc(C)c2)ccn1 (centres unmarked) [H 110, 1 [5 (2 acetylamino-4-pyridyl)-4 (3 methylphenyl)-1,3 thiazol-2 yl]ethyl benzoate]
21 | 99 to 102 °C | CC(=O)Nc1cc(-c2sc(C(C)O)nc2-c2cccc(C)c2)ccn1 (centres unmarked) [H 111-1, N-[4 [2 (1 hydroxyethyl)-4-(3 methylphenyl)-1,3 thiazol-5 yl]-2 pyridyl]acetamide]

Row | melting point | Compound
22 | 142 to 145 °C | CC(=O)Nc1cc(-c2sc(C(C)O)nc2-c2cccc(Cl)c2)ccn1 (centres unmarked) [H 111-2, N-[4 [4 (3 chlorophenyl)-2-(1 hydroxyethyl)-1,3 thiazol-5 yl]-2 pyridyl]acetamide]
23 | 180 to 183 °C | CC(=O)Nc1cc(-c2sc(C(C)=O)nc2-c2cccc(Cl)c2)ccn1 [H 112, N-[4 [2 acetyl-4 (3-chlorophenyl)-1,3 thiazol-5 yl]-2 pyridyl]acetamide]
24 | 113 to 114 °C | CSCc1nc(-c2cccc(C)c2)c(-c2ccnc(N)c2)s1 [H 113-1, 4 [4 (3 methylphenyl)-2-(methylthio)methyl-1,3 thiazol-5 yl]-2 pyridylamine]
25 | 140 to 141 °C | Cc1cccc(-c2nc(C(C)(F)F)sc2-c2ccnc(N)c2)c1 [H 113-2, 4 [2 (1,1 difluoroethyl)-4 (3 methylphenyl)-1,3 thiazol-5 yl]-2 pyridylamine]
26 | 99 to 101 °C | CCc1nc(-c2cccc(C)c2)c(-c2ccnc(NC(=O)c3ccsc3)c2)s1 [L 39-1, N-[4 [2 ethyl-4 (3-methylphenyl)-1,3 thiazol-5 yl]-2 pyridyl]-3-thiophenecarboxamide]
27 | 124 to 125 °C | CCc1nc(-c2cccc(C)c2)c(-c2ccnc(NC(=O)c3ccc(OC)cc3)c2)s1 [L 39-2, N-[4 [2 ethyl-4 (3-methylphenyl)-1,3 thiazol-5 yl]-2 pyridyl]-4 methoxybenzamide]
28 | 105 to 106 °C | CCc1nc(-c2cccc(C)c2)c(-c2ccnc(NC(=O)c3ccc(C)cc3)c2)s1 [L 39-3, N-[4 [2 ethyl-4 (3-methylphenyl)-1,3 thiazol-5 yl]-2 pyridyl]-4 methylbenzamide]
29 | 101 to 102 °C | CCc1nc(-c2cccc(C)c2)c(-c2ccnc(NC(=O)c3cccc(F)c3)c2)s1 [L 39-4, N-[4 [2 ethyl-4 (3-methylphenyl)-1,3 thiazol-5 yl]-2 pyridyl]-3 fluorobenzamide]
30 | 110 to 111 °C | CCc1nc(-c2cccc(C)c2)c(-c2ccnc(NC(=O)c3ccc(F)cc3)c2)s1 [L 39-5, N-[4 [2 ethyl-4 (3-methylphenyl)-1,3 thiazol-5 yl]-2 pyridyl]-4 fluorobenzamide]
31 | 77 to 78 °C | CCc1nc(-c2cccc(C)c2)c(-c2ccnc(NC(=O)c3cc(Cl)cc(Cl)c3)c2)s1 [L 39-6, 3,5 dichloro-N-[4 [2 ethyl-4 (3 methylphenyl)-1,3 thiazol-5 yl]-2 pyridyl]benzamide]
32 | 151 to 152 °C | Cc1cccc(-c2nc(C3CCN(C)CC3)sc2-c2ccnc(NC(=O)c3ccccc3)c2)c1 [L 44, N-[4 [4 (3 methylphenyl)-2 (1 methylpiperidin-4 yl)-1,3-thiazol-5 yl]-2 pyridyl]benzamide]
33 | 150 to 151 °C | Cc1cccc(-c2nc(N(C)C(=O)c3cccnc3)sc2-c2ccnc(NC3CCCC3)c2)c1 [L 65-3, N-methyl-N-[5 (2-cyclopentylamino-4 pyridyl)-4 (3 methylphenyl)-1,3 thiazol-2-yl]nicotinamide]
34 | 135 to 136 °C | Cc1cccc(-c2nc(N(C)C(=O)c3cccnc3)sc2-c2ccnc(NC3CCCCC3)c2)c1 [L 65-4, N-methyl-N-[5 (2-cyclohexylamino-4 pyridyl)-4 (3 methylphenyl)-1,3 thiazol-2-yl]nicotinamide]
35 | 176 to 177 °C | Cc1cccc(-c2nc(N(C)C(=O)c3ccc(C)nc3)sc2-c2ccnc(NC3CCCC3)c2)c1 [L 67-2, N-[5 (2 cyclopentylamino-4-pyridyl)-4 (3 methylphenyl)-1,3 thiazol-2 yl]-N, 6-dimethylnicotinamide]
36 | 99 to 101 °C | Cc1nc(-c2cccc(Cl)c2)c(-c2ccnc(NC(=O)Cc3ccccc3)c2)s1 [L 68-3, N-[4 [4 (3 chlorophenyl)-2-methyl-1,3 thiazol-5 yl]-2 pyridyl]phenylacetamide]
37 | 114 to 115 °C | Cc1cccc(-c2nc(C)sc2-c2ccnc(NC(=O)Cc3ccccc3)c2)c1 [L 68-5, N-[4 [2 methyl-4 (3-methylphenyl)-1,3 thiazol-5 yl]-2 pyridyl]phenylacetamide]
38 | 135 to 136 °C | Cc1cccc(-c2ncsc2-c2ccnc(NC(=O)Cc3ccccc3)c2)c1 [L 68-6, N-[4 [4 (3 methylphenyl)-1,3 thiazol-5 yl]-2 pyridyl]phenylacetamide]
39 | 178 to 179 °C | CCc1nc(-c2ccc(F)cc2)c(-c2ccnc(NC(=O)Cc3ccccc3)c2)s1 [L 68-7, N-[4 [2 ethyl-4 (4-fluorophenyl)-1,3 thiazol-5 yl]-2 pyridyl]phenylacetamide]
40 | 128 to 129 °C | CCc1nc(-c2ccc(C)cc2)c(-c2ccnc(NC(=O)Cc3ccccc3)c2)s1 [L 68-8, N-[4 [2 ethyl-4 (4-methylphenyl)-1,3 thiazol-5 yl]-2 pyridyl]phenylacetamide]
41 | 162 to 163 °C | CCc1nc(-c2ccccc2)c(-c2ccnc(NC(=O)Cc3ccccc3)c2)s1 [L 68-9, N-[4 (2 ethyl-4 phenyl-1,3-thiazol-5 yl)-2 pyridyl]phenylacetamide]
